{"source": "patent US10328093B2", "about": "“Anthracycline formulations” (CYTRX CORPORATION, priority 2012, dated 2019)", "assay": "pH stability study of DOXO-EMCH in DI Water or pH 4.0 buffer (RP-HPLC)", "format": "physicochemical", "conditions": "for DOXO-EMCH / Doxorubicin / pH: room temperature", "procedure": "To analyze DOXO-EMCH's behavior in solution, a reversed-phase (RP) HPLC method for quantitation of DOXO-EMCH and various impurities and degradation products was utilized. Samples (1.0 μL injection volume) were assayed on an HPLC system fitted with a Phenomenex Gemini C18 column 100×2.0 mm, 3 μm at a flow rate of 0.3 mL/min. The mobile phase used was an acetate/acetonitrile gradient. The degradation product EMCH could not be detected using the above HPLC method, and was therefore determined using a liquid chromatography-mass spectrometry (LC-MS) method.\nStudies were performed to examine the effects of pH on DOXO-EMCH stability. In these studies, a criterion of less than 3% doxorubicin over 3-5 hours was set as the goal for stability of DOXO-EMCH. Overall, studies were designed to measure the degradation of DOXO-EMCH at room temperature into doxorubicin and EMCH. Doxorubicin was measured as a percentage of the starting DOXO-EMCH material. Due to solubility issues, the buffer controlled pH portion of the study could not be completed at pH 5.0, 5.5, 6.0 and 7.0. The results below are for DOXO-EMCH dissolved in DI Water at low (2.0 mg/mL) and high (20.0 mg/mL) concentration, and DOXO-EMCH dissolved in pH 4.0 phosphate citrate buffer at low concentration. In summary, none of the conditions met the goal of less than 3% doxorubicin HCl over a 3-5 hour period. […] The DOXO-EMCH dissolved in pH 4.0 phosphate citrate buffer was very unstable, likely as a result of the breakdown of the molecule at pH values below ˜4.5 (Table 6).", "key": {"[1]": {"conditions": "~2.0 mg/mL in DI Water, no pH adjustment, 0 hr"}, "[2]": {"conditions": "~2.0 mg/mL in DI Water, no pH adjustment, 2 hr"}, "[3]": {"conditions": "~2.0 mg/mL in DI Water, no pH adjustment, 4 hr"}, "[4]": {"conditions": "~2.0 mg/mL in DI Water, no pH adjustment, 6 hr"}, "[5]": {"conditions": "~2.0 mg/mL in pH 4.0 phosphate citrate buffer, 0 hr"}, "[6]": {"conditions": "~2.0 mg/mL in pH 4.0 phosphate citrate buffer, 2 hr"}, "[7]": {"conditions": "~2.0 mg/mL in pH 4.0 phosphate citrate buffer, 4 hr"}, "[8]": {"conditions": "~20.0 mg/mL in DI Water, no pH adjustment, 0 hr"}, "[9]": {"conditions": "~20.0 mg/mL in DI Water, no pH adjustment, 2 hr"}, "[10]": {"conditions": "~20.0 mg/mL in DI Water, no pH adjustment, 4 hr"}, "[11]": {"conditions": "~20.0 mg/mL in DI Water, no pH adjustment, 6 hr"}}, "data": [{"smiles": "COc1cccc2c1C(=O)c1c(O)c3c(c(O)c1C2=O)C[C@@](O)(/C(CO)=N/NC(=O)CCCCCN1C(=O)C=CC1=O)C[C@@H]3O[C@H]1C[C@H](N)[C@H](O)[C@H](C)O1.Cl", "note": "[DOXO-EMCH]", "values": [{"measurement": "stability", "setting": "dissolved in pH 4.0 phosphate citrate buffer", "value": "very unstable"}, {"measurement": "DOXO-EMCH", "setting": "[1]", "value": 95.8, "unit": "wt %"}, {"measurement": "Doxorubicin", "setting": "[1]", "value": 0.6, "unit": "wt %"}, {"measurement": "pH", "setting": "[1]", "value": 6.0}, {"measurement": "DOXO-EMCH", "setting": "[2]", "value": 82.8, "unit": "wt %"}, {"measurement": "Doxorubicin", "setting": "[2]", "value": 3.7, "unit": "wt %"}, {"measurement": "pH", "setting": "[2]", "value": 5.4}, {"measurement": "DOXO-EMCH", "setting": "[3]", "value": 76.7, "unit": "wt %"}, {"measurement": "Doxorubicin", "setting": "[3]", "value": 8.9, "unit": "wt %"}, {"measurement": "pH", "setting": "[3]", "value": 5.1}, {"measurement": "DOXO-EMCH", "setting": "[4]", "value": 68.6, "unit": "wt %"}, {"measurement": "Doxorubicin", "setting": "[4]", "value": 14.3, "unit": "wt %"}, {"measurement": "pH", "setting": "[4]", "value": 5.0}, {"measurement": "DOXO-EMCH", "setting": "[5]", "value": 65.1, "unit": "wt %"}, {"measurement": "Doxorubicin", "setting": "[5]", "value": 23.5, "unit": "wt %"}, {"measurement": "pH", "setting": "[5]", "value": 4.0}, {"measurement": "DOXO-EMCH", "setting": "[6]", "value": 7.3, "unit": "wt %"}, {"measurement": "Doxorubicin", "setting": "[6]", "value": 66.1, "unit": "wt %"}, {"measurement": "pH", "setting": "[6]", "value": 4.0}, {"measurement": "DOXO-EMCH", "setting": "[7]", "value": 2.9, "unit": "wt %"}, {"measurement": "Doxorubicin", "setting": "[7]", "value": 68.8, "unit": "wt %"}, {"measurement": "pH", "setting": "[7]", "value": 4.0}, {"measurement": "DOXO-EMCH", "setting": "[8]", "value": 86.0, "unit": "wt %"}, {"measurement": "Doxorubicin", "setting": "[8]", "value": 7.8, "unit": "wt %"}, {"measurement": "pH", "setting": "[8]", "value": 4.8}, {"measurement": "DOXO-EMCH", "setting": "[9]", "value": 74.9, "unit": "wt %"}, {"measurement": "Doxorubicin", "setting": "[9]", "value": 15.6, "unit": "wt %"}, {"measurement": "pH", "setting": "[9]", "value": 4.6}, {"measurement": "DOXO-EMCH", "setting": "[10]", "value": 56.7, "unit": "wt %"}, {"measurement": "Doxorubicin", "setting": "[10]", "value": 24.8, "unit": "wt %"}, {"measurement": "pH", "setting": "[10]", "value": 4.5}, {"measurement": "DOXO-EMCH", "setting": "[11]", "value": 45.2, "unit": "wt %"}, {"measurement": "Doxorubicin", "setting": "[11]", "value": 32.2, "unit": "wt %"}, {"measurement": "pH", "setting": "[11]", "value": 4.6}]}]}
